According to patent publication US20230031406A1, “COMPOUNDS AND COMPOSITIONS FOR TREATING CONDITIONS ASSOCIATED WITH NLRP ACTIVITY” (Novartis AG, priority 2018, published 2023):
Where two headings read alike, the source gives them in different places. Blank lines part the entries; values can stand above or below the compound they belong to.

System: PMA-differentiated THP-1 cells
Test: hTHP-1 assay containing 10% fetal bovine serum (IL-1β production, Tables B5 and B6)
Assay type: cell-based, human
Summary of the method: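 IL-1β release from PMA-differentiated THP-1 macrophage-like cells was triggered by 5 μM gramicidin for 2 h after 1 h compound exposure, then measured by HTRF.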

[1] = Homo sapiens, THP-1, read-out: hTHP-1 IC50 in 10% FBS, hTHP-1 assay containing 10% fetal bovine serum, Table B5
[2] = read-out: hTHP-1 IC50 in 10% FBS, hTHP-1 assay containing 10% fetal bovine serum, Table B6
[3] = Homo sapiens, THP-1, read-out: hTHP-1 IC50 in 10% FBS, hTHP-1 assay containing 10% fetal bovine serum, Table B6

IC50 (read-out: hTHP-1 IC50 in 10% FBS, hTHP-1 assay containing 10% fetal bovine serum, Table B5, listed as 835): 200 to 1000 nM
SMILES: CC(C)(O)c1csc(S(N)(=O)=NC(=O)Nc2c3c(nc(C(F)(F)F)c2C2CC2)CCC3)c1F (single isomer, unassigned) [Compound 1105b, (S) or (R)-N′-((3-cyclopropyl-2-(trifluoromethyl)-6,7-dihydro-5H-cyclopenta[b]pyridin-4-yl)carbamoyl)-3-fluoro-4-(2-hydroxypropan-2-yl)thiophene-2-sulfonimidamide]

IC50 [1]: 200 to 1000 nM
SMILES: Cc1c(C(F)(F)F)nc2c(c1NC(=O)N=S(N)(=O)c1nn(C(C)(F)F)cc1F)CCC2 (stereo not shown) [Compound 1004, 1-(1,1-Difluoroethyl)-4-fluoro-N′-((3-methyl-2-(trifluoromethyl)-6,7-dihydro-5H-cyclopenta [b]pyridin-4-yl)carbamoyl)-1H-pyrazole-3-sulfonimidamide]

IC50 [2]: 200 to 1000 nM
SMILES: C[C@@H]1CCc2c1nc1c(c2NC(=O)N=S(N)(=O)c2nn(C3CC3)cc2F)CCC1 (single isomer, unassigned) [Example 868, (S) or (R)-1-cyclopropyl-4-fluoro-N′-(((R)-3-methyl-1,2,3,5,6,7-hexahydrodicyclopenta[b,e]pyridin-8-yl)carbamoyl)-1H-pyrazole-3-sulfonimidamide]

IC50 [1]: 8 to 40 nM
SMILES: C[C@@H](O)Cn1cc(F)c(S(N)(=O)=NC(=O)Nc2c3c(nc4c2CCC42CC2)CCC3)n1 (stereo partly drawn) [Compound 1119, 4-Fluoro-1-((R)-2-hydroxypropyl)-N′-((1′,5′,6′,7′-tetrahydro-2′H-spiro[cyclopropane-1,3′-dicyclopenta[b,e]pyridin]-8′-yl)carbamoyl)-1H-pyrazole-3-sulfonimidamide]

IC50 (read-out: hTHP-1 IC50 in 10% FBS, hTHP-1 assay containing 10% fetal bovine serum, Table B5, listed as 827): 1000 to 5000 nM
SMILES: CC(C)n1cc(F)c(S(N)(=O)=NC(=O)Nc2c3c(nc(C(F)(F)F)c2C2CC2)CCC3)n1 (single isomer, unassigned) [Compound 1104b, (S) or (R)-N′-((3-cyclopropyl-2-(trifluoromethyl)-6,7-dihydro-5H-cyclopenta[b]pyridin-4-yl)carbamoyl)-4-fluoro-1-isopropyl-1H-pyrazole-3-sulfonimidamide]

IC50 (read-out: hTHP-1 IC50 in 10% FBS, hTHP-1 assay containing 10% fetal bovine serum, Table B5, listed as 836): 200 to 1000 nM
SMILES: CCn1cc(F)c(S(N)(=O)=NC(=O)Nc2c3c(nc(C(F)(F)F)c2-c2ccc(F)c(F)c2)CCC3)n1 (single isomer, unassigned) [Compound 1113a, (S) or (R)-N′-((3-(3,4-difluorophenyl)-2-(trifluoromethyl)-6,7-dihydro-5H-cyclopenta[b]pyridin-4-yl)carbamoyl)-1-ethyl-4-fluoro-1H-pyrazole-3-sulfonimidamide]

IC50 [2]: 8 to 40 nM
SMILES: Cc1c(C(F)(F)F)nc2c(c1NC(=O)N=S(N)(=O)c1nn(C3CC3)cc1F)CCC2 (single isomer, unassigned) [Example 869, (R) or (S)-1-cyclopropyl-4-fluoro-N′-((3-methyl-2-(trifluoromethyl)-6,7-dihydro-5H-cyclopenta[b]pyridin-4-yl)carbamoyl)-1H-pyrazole-3-sulfonimidamide]

IC50 [3]: 8 to 40 nM
SMILES: C[C@@H]1CCc2c1nc1c(c2NC(=O)N=S(N)(=O)c2nn(C3CC3)cc2F)CCC1 (stereo partly drawn) [Example 855, 1-Cyclopropyl-4-fluoro-N′-(((R)-3-methyl-1,2,3,5,6,7-hexahydrodicyclopenta[b,e]pyridin-8-yl)carbamoyl)-1H-pyrazole-3-sulfonimidamide]

The remaining lines, values behind:

SMILES: CC(C)n1cc(F)c(S(N)(=O)=NC(=O)Nc2c3c(nc(C(F)(F)F)c2C2CC2)CCC3)n1 (single isomer, unassigned) [Compound 1104a, (R) or (S)-N′-((3-cyclopropyl-2-(trifluoromethyl)-6,7-dihydro-5H-cyclopenta[b]pyridin-4-yl)carbamoyl)-4-fluoro-1-isopropyl-1H-pyrazole-3-sulfonimidamide]
IC50 (read-out: hTHP-1 IC50 in 10% FBS, hTHP-1 assay containing 10% fetal bovine serum, Table B5, listed as 826): 40 to 200 nM

SMILES: CC(C)(O)c1csc(S(N)(=O)=NC(=O)Nc2c3c(nc(C(F)(F)F)c2C2CC2)CCC3)c1F (single isomer, unassigned) [Compound 1105a, (R) or (S)-N′-((3-cyclopropyl-2-(trifluoromethyl)-6,7-dihydro-5H-cyclopenta[b]pyridin-4-yl)carbamoyl)-3-fluoro-4-(2-hydroxypropan-2-yl)thiophene-2-sulfonimidamide]
IC50 (read-out: hTHP-1 IC50 in 10% FBS, hTHP-1 assay containing 10% fetal bovine serum, Table B5, listed as 834): 40 to 200 nM

SMILES: C[C@@H]1CCc2c1nc1c(c2NC(=O)N=S(N)(=O)c2scc(C(C)(C)O)c2F)CCC1 (single isomer, unassigned) [Compound 1109b, (S) or (R)-3-fluoro-4-(2-hydroxypropan-2-yl)-N′-(((R)-3-methyl-1,2,3,5,6,7-hexahydrodicyclopenta [b,e]pyridin-8-yl)-carbamoyl) thiophene-2-sulfonimidamide]
IC50 (read-out: hTHP-1 IC50 in 10% FBS, hTHP-1 assay containing 10% fetal bovine serum, Table B5, listed as 843): 200 to 1000 nM

SMILES: Cc1c(C(F)(F)F)nc2c(c1NC(=O)N=S(N)(=O)c1scc(C(C)(C)O)c1F)CCC2 (single isomer, unassigned) [Compound 1108a, (R) or (S)-3-fluoro-4-(2-hydroxypropan-2-yl)-N′-((3-methyl-2-(trifluoromethyl)-6,7-dihydro-5H-cyclopenta[b]pyridin-4-yl)carbamoyl)thiophene-2-sulfonimidamide]
IC50 (read-out: hTHP-1 IC50 in 10% FBS, hTHP-1 assay containing 10% fetal bovine serum, Table B5, listed as 840): 40 to 200 nM

SMILES: CC(F)(F)n1cc(F)c(S(N)(=O)=NC(=O)Nc2c3c(nc4c2CCC4)CCC3)n1 (single isomer, unassigned) [Compound 1115b, (S) or (R)-1-(1,1-difluoroethyl)-4-fluoro-N′-((1,2,3,5,6,7-hexa-hydrodicyclopenta[b,e]pyridin-8-yl)carbamoyl)-1H-pyrazole-3-sulfonimidamide]
IC50 (read-out: hTHP-1 IC50 in 10% FBS, hTHP-1 assay containing 10% fetal bovine serum, Table B5, listed as 847): 5000 to 30000 nM

SMILES: CC(C)(O)c1csc(S(N)(=O)=NC(=O)Nc2c3c(nc(C4CC4)c2C2CC2)CCC3)c1F (single isomer, unassigned) [Compound 1106a, (R) or (S)-N′-((2,3-dicyclopropyl-6,7-dihydro-5H-cyclopenta[b]pyridin-4-yl)carbamoyl)-3-fluoro-4-(2-hydroxypropan-2-yl)thiophene-2-sulfonimidamide]
IC50 (read-out: hTHP-1 IC50 in 10% FBS, hTHP-1 assay containing 10% fetal bovine serum, Table B5, listed as 830): 40 to 200 nM

SMILES: CC(C)(O)c1csc(S(N)(=O)=NC(=O)Nc2c3c(nc(C4CC4)c2C2CC2)CCC3)c1F (stereo not shown) [Compound 1006, N′-((2,3-dicyclopropyl-6,7-dihydro-5H-cyclopenta[b]pyridin-4-yl)-carbamoyl)-3-fluoro-4-(2-hydroxypropan-2-yl)thiophene-2-sulfonimidamide]
IC50 [1]: 40 to 200 nM

SMILES: NS(=O)(=NC(=O)Nc1c2c(nc3c1CCC3)CCC2)c1nn(C2CC2)cc1F (stereo not shown) [Example 858, 1-Cyclopropyl-4-fluoro-N′-((1,2,3,5,6,7-hexahydrodicyclopenta[b,e]pyridin-8-yl)carbamoyl)-1H-pyrazole-3-sulfonimidamide]
IC50 [3]: 40 to 200 nM

SMILES: C[C@@H]1CCc2c1nc1c(c2NC(=O)N=S(N)(=O)c2scc(C(C)(C)O)c2F)CCC1 (stereo partly drawn) [Compound 1109, 3-Fluoro-4-(2-hydroxy-propan-2-yl)-N′-(((R)-3-methyl-1,2,3,5,6,7-hexahydrodicyclopenta [b,e]pyridin-8-yl)-carbamoyl)thiophene-2-sulfonimidamide]
IC50 [1]: 8 to 40 nM

SMILES: CC(C)(O)c1csc(S(N)(=O)=NC(=O)Nc2c3c(nc(C(F)(F)F)c2C2CC2)CCC3)c1F (stereo not shown) [Compound 1105, N′-((3-cyclopropyl-2-(trifluoromethyl)-6,7-dihydro-5H-cyclopenta [b]pyridin-4-yl)carbamoyl)-3-fluoro-4-(2-hydroxypropan-2-yl) thiophene-2-sulfonimidamide]
IC50 [1]: 40 to 200 nM

SMILES: C[C@@H]1CCc2c1nc1c(c2NC(=O)N=S(N)(=O)c2nn(C(C)(F)F)cc2F)CCC1 (stereo partly drawn) [Compound 1111, 1-(1,1-Difluoroethyl)-4-fluoro-N′-(((R)-3-methyl-1,2,3,5,6,7-hexahydrodicyclopenta [b,e]pyridin-8-yl)carbamoyl)-1H-pyrazole-3-sulfonimidamide]
IC50 [1]: 8 to 40 nM
